Patent publication US10597388B2, “Pyridazinone herbicides” (FMC CORPORATION, priority 2014, dated 2020)
Like-named read-outs stand apart in the source and are kept apart here.

Legend:
[1] = tested on: barnyardgrass (Echinochloa crus-galli); assay: Test B flooded paddy test; assay type: in vivo; conditions: Echinochloa crus-galli, 360 h; 250 g ai/ha, Flood; visual rating on scale of 0 to 100 where 0 is no effect and 100 is complete control; 13 to 15 d after treatment; read-out: Plant response rating, Barnyardgrass
In short: (§1)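 Ratings use a 0-100 visual scale, where 100 is complete control, and compare treated plants with controls after 13 to 15 d of greenhouse growth. Compound went straight into paddy water kept 3 cm over the soil surface, applied to seedlings at the 2-leaf stage.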

[2] = tested on: sedge, umbrella (small-flower umbrella sedge, Cyperus difformis); assay: Test B flooded paddy test; assay type: in vivo; conditions: Cyperus difformis, 360 h; 250 g ai/ha, Flood; visual rating on scale of 0 to 100 where 0 is no effect and 100 is complete control; 13 to 15 d after treatment; read-out: Plant response rating, Sedge, Umbrella
In short: as §1

rice (Oryza sativa) = assay: Test B flooded paddy test; assay type: in vivo; conditions: Oryza sativa, 360 h; 250 g ai/ha, Flood; visual rating on scale of 0 to 100 where 0 is no effect and 100 is complete control; 13 to 15 d after treatment; read-out: Plant response rating, Rice
In short: as §1

[3] = tested on: ducksalad (Heteranthera limosa); assay: Test B flooded paddy test; assay type: in vivo; conditions: Heteranthera limosa, 360 h; 250 g ai/ha, Flood; visual rating on scale of 0 to 100 where 0 is no effect and 100 is complete control; 13 to 15 d after treatment; read-out: Plant response rating, Ducksalad
In short: as §1

[4] = tested on: velvetleaf (Abutilon theophrasti); assay: Test A greenhouse herbicide test, pre- and postemergence; assay type: in vivo; conditions: 240 h, 1000 g ai/ha, 0 to 100 scale
In short: (§2)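 Visual injury ratings, 0 (no effect) to 100 (complete control), versus untreated plants after roughly 10 d in a greenhouse. Compounds, formulated in a surfactant-containing non-phytotoxic solvent, were sprayed on loam–sand soil after sowing (pre) or on one- to two-leaf plants 2–10 cm tall (post).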

[5] = tested on: wheat (Triticum aestivum); assay: as above; assay type: in vivo; conditions: Triticum aestivum, 240 h, 1000 g ai/ha, 0 to 100 scale
In short: as §2

[6] = tested on: barnyardgrass (Echinochloa crus-galli); assay: as above; assay type: in vivo; conditions: Echinochloa crus-galli, 240 h, 1000 g ai/ha, 0 to 100 scale
In short: as §2

corn (Zea mays) = assay: as above; assay type: in vivo; conditions: Zea mays, 240 h, 1000 g ai/ha, 0 to 100 scale; for plant injury at 1000 g/ha: post-emergence, Postemergence, 0 is no effect, 100 is complete control, read-out: Corn plant response rating; for Corn plant response rating (crop injury, 0 = no effect, 100 = complete kill) at 1000 g/ha: pre-emergence, Preemergence, 100 complete control
In short: as §2

[7] = tested on: momingglory (Ipomoea spp.); assay: as above; assay type: in vivo; conditions: 240 h, 1000 g ai/ha, 0 to 100 scale
In short: as §2

[8] = tested on: crabgrass, large (large crabgrass, Digitaria sanguinalis); assay: as above; assay type: in vivo; conditions: 240 h, 1000 g ai/ha, 0 to 100 scale
In short: as §2

[9] = tested on: pigweed (Amaranthus retroflexus); assay: as above; assay type: in vivo; conditions: Amaranthus retroflexus, 240 h, 1000 g ai/ha, 0 to 100 scale
In short: as §2

[10] = tested on: foxtail, giant (giant foxtail, Setaria faberii); assay: as above; assay type: in vivo; conditions: Setaria faberi, 240 h, 1000 g ai/ha, 0 to 100 scale
In short: as §2

[11] = post-emergence, Postemergence, 0 is no effect, 100 is complete control, read-out: Velvetleaf plant response rating
[12] = pre-emergence, Preemergence, 0 no effect, 100 complete control, read-out: Plant response rating, Velvetleaf
[13] = post-emergence, Postemergence, 0 is no effect, 100 is complete control, read-out: Wheat plant response rating
[14] = pre-emergence, Preemergence, 0 no effect, 100 complete control, read-out: Plant response rating, Wheat
[15] = post-emergence, Postemergence, 0 is no effect, 100 is complete control, read-out: Barnyardgrass plant response rating
[16] = pre-emergence, Preemergence, 0 no effect, 100 complete control, read-out: Plant response rating, Barnyardgrass
[17] = post-emergence, Postemergence, 0 is no effect, 100 is complete control, read-out: Morningglory plant response rating
[18] = pre-emergence, Preemergence, 0 no effect, 100 complete control, read-out: Plant response rating, Morningglory
[19] = post-emergence, Postemergence, 0 is no effect, 100 is complete control, read-out: Crabgrass, Large plant response rating
[20] = pre-emergence, Preemergence, 0 no effect, 100 complete control, read-out: Plant response rating, Crabgrass, Large
[21] = post-emergence, Postemergence, 0 is no effect, 100 is complete control, read-out: Pigweed plant response rating
[22] = pre-emergence, Preemergence, 0 no effect, 100 complete control, read-out: Plant response rating, Pigweed
[23] = post-emergence, Postemergence, 0 is no effect, 100 is complete control, read-out: Foxtail, Giant plant response rating
[24] = pre-emergence, Preemergence, 0 no effect, 100 complete control, read-out: Plant response rating, Foxtail, Giant

Row | SMILES | pest or weed control at 250 g/ha [1] | pest or weed control at 250 g/ha [2] | plant injury at 250 g/ha (rice (Oryza sativa)) | pest or weed control at 250 g/ha [3] | pest or weed control at 1000 g/ha [4, 11] | pest or weed control at 1000 g/ha [4, 12] | plant injury at 1000 g/ha [5, 13] | plant injury at 1000 g/ha [5, 14] | pest or weed control at 1000 g/ha [6, 15] | pest or weed control at 1000 g/ha [6, 16] | plant injury at 1000 g/ha (corn (Zea mays)) | Corn plant response rating (crop injury, 0 = no effect, 100 = complete kill) at 1000 g/ha (corn (Zea mays)) | pest or weed control at 1000 g/ha [7, 17] | pest or weed control at 1000 g/ha [7, 18] | pest or weed control at 1000 g/ha [8, 19] | pest or weed control at 1000 g/ha [8, 20] | pest or weed control at 1000 g/ha [9, 21] | pest or weed control at 1000 g/ha [9, 22] | pest or weed control at 1000 g/ha [10, 23] | pest or weed control at 1000 g/ha [10, 24] | further results
1 | Cc1cc(C)c2c(-c3c(O)c(C)nn(C)c3=O)c(C)sc2c1 [Compound 3, 5-hydroxy-2,6-dimethyl-4-(2,4,6-trimethylbenzo[b]thien-3-yl)-3(2H)-pyridazinone] | 0% | 0% | 0% | 20% | 70% | 70% | 0% | 0% | 50% | 80% | 0% | 0% | 90% | 80% | 10% | 80% | 0% | 0% | 10% | 60% | melting point: 224 to 227 °C
2 | Cc1ccc2oc(C)c(-c3c(O)c(C)nn(C)c3=O)c2c1 [Compound 7, 4-(2,5-dimethyl-3-benzofuranyl)-5-hydroxy-2,6-dimethyl-3(2H)-pyridazinone] | 20% | 60% | 0% | 60% | 100% | 80% | 20% | 0% | 90% | 100% | 10% | 30% | 100% | 80% | 50% | 90% | 100% | 100% | 90% | 90% | –
